In the first assay the target is T1, ER (Homo sapiens, UniProt P03372).
T1 construct: host or cells: T47D and MCF7 human breast cancer cells
T1 sequence (P03372 1-595): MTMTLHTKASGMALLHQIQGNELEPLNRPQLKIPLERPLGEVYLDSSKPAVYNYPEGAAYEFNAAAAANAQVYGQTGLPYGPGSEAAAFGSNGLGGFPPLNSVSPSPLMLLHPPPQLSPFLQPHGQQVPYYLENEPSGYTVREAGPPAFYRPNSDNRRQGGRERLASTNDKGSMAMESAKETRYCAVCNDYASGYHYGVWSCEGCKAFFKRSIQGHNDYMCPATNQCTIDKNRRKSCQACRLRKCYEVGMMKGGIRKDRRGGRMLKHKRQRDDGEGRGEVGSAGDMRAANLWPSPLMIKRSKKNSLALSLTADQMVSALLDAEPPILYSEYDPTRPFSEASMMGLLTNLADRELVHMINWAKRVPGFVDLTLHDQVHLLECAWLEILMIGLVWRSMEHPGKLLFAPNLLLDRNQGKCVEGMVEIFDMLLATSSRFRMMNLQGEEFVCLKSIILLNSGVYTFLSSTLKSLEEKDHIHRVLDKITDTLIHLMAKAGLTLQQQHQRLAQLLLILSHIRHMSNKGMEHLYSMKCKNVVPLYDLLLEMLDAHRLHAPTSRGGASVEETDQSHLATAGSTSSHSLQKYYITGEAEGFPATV
As to the kind of experiment: ER degradation activity, in-cell western blot analysis in T47D cells. Type of assay: cell-based. The following applies: 16 hours, Table A does not say which cell line (T47D or MCF7), read-out: Potency (DC50). The essentials: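 Human T47D cells (DMEM, 10% FBS) are dosed for 16 h with 0.5% DMSO final and probed with 680- and 800-dye secondary antibodies. Relative ER is calculated against vehicle and untreated wells.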
For orientation: DC50 means the midpoint of the concentration-degradation curve. Regarding `C[C@@H]1Cc2c([nH]c3ccccc23)[C@@H](c2ccc(N3CCC4(CC3)CN(C(=O)CN3Cc5cc6c(cc5C3)C(=O)N(C3CCC(=O)NC3=O)C6=O)C4)cc2)N1CC(F)F` (stereo partly drawn) [E 262, 6-(2-(7-(4-((1R,3R)-2-(2,2-difluoroethyl)-3-methyl-2,3,4,9-tetrahydro-1H-pyrido[3,4-b]indol-1-yl)phenyl)-2,7-diazaspiro[3.5]nonan-2-yl)-2-oxoethyl)-2-(2,6-dioxopiperidin-3-yl)-6,7-dihydropyrrolo[3,4-f]isoindole-1,3(2H,5H)-dione], the DC50 lay within 10 to 100 nM.
With `C[C@@H]1Cc2c([nH]c3ccccc23)[C@@H](c2c(F)cc(N3CC4(CCN4CC(=O)N4Cc5cc6c(cc5C4)C(=O)N(C4CCC(=O)NC4=O)C6)C3)cc2F)N1CC(F)F` (stereo partly drawn) [E 61, 3-(6-(2-(6-(4-((1R,3R)-2-(2,2-difluoroethyl)-3-methyl-2,3,4,9-tetrahydro-1H-pyrido[3,4-b]indol-1-yl)-3,5-difluorophenyl)-1,6-diazaspiro[3.3]heptan-1-yl)acetyl)-1-oxo-3,5,6,7-tetrahydropyrrolo[3,4-f]isoindol-2(1H)-yl)piperidine-2,6-dione], the DC50 is over 100 nM.
Turning to `C[C@@H]1Cc2cc(O)ccc2[C@@H](c2c(F)cc(N3CCC4(CN(CC(=O)N5Cc6cc7c(cc6C5)C(=O)N(C5CCC(=O)NC5=O)C7)C4)C3)cc2F)N1CC(F)F` (stereo partly drawn) [E 38, 3-(6-(2-(6-(4-((1S,3R)-2-(2,2-difluoroethyl)-6-hydroxy-3-methyl-1,2,3,4-tetrahydroisoquinolin-1-yl)-3,5-difluorophenyl)-2,6-diazaspiro[3.4]octan-2-yl)acetyl)-1-oxo-3,5,6,7-tetrahydropyrrolo[3,4-f]isoindol-2(1H)-yl)piperidine-2,6-dione], the DC50 lay in the range of 10 to 100 nM.
On to `CN(C1CN(c2ccc([C@@H]3c4ccc(O)cc4CC[C@@H]3c3ccccc3)cc2)C1)[C@H]1CC[C@@H](C(=O)N2Cc3cc4c(cc3C2)C(=O)N(C2CCC(=O)NC2=O)C4)CC1` (single isomer, unassigned) [E 356], for which the DC50 was over 100 nM.
For `C[C@@H]1Cc2cc(O)ccc2[C@@H](c2c(F)cc(N3CCC(N4CCC(C(=O)N5Cc6cc7c(cc6C5)C(=O)N(C5CCC(=O)NC5=O)C7=O)CC4)CC3)cc2F)N1CC(C)(F)F` (stereo partly drawn) [E 29, 6-(1′-(4-((1S,3R)-2-(2,2-difluoropropyl)-6-hydroxy-3-methyl-1,2,3,4-tetrahydroisoquinolin-1-yl)-3,5-difluorophenyl)-[1,4′-bipiperidine]-4-carbonyl)-2-(2,6-dioxopiperidin-3-yl)-6,7-dihydropyrrolo[3,4-f]isoindole-1,3(2H,5H)-dione], the DC50 is over 100 nM.
Consider `C[C@@H]1Cc2c([nH]c3ccccc23)[C@@H](c2c(F)cc(N3CC(C(=O)N4CCC(CN5Cc6cc7c(cc6C5)C(=O)N(C5CCC(=O)NC5=O)C7=O)CC4)C3)cc2F)N1CC(F)F` (stereo partly drawn) [E 216, 6-((1-(1-(4-((1R,3R)-2-(2,2-difluoroethyl)-3-methyl-2,3,4,9-tetrahydro-1H-pyrido[3,4-b]indol-1-yl)-3,5-difluorophenyl)azetidine-3-carbonyl)piperidin-4-yl)methyl)-2-(2,6-dioxopiperidin-3-yl)-6,7-dihydropyrrolo[3,4-f]isoindole-1,3(2H,5H)-dione], for which the DC50 is under 10 nM.
Take `O=C1CCC(N2C(=O)c3cc4c(cc3C2=O)CN(C(=O)CN2CCC3(CC2)CCN(c2ccc([C@@H]5c6ccc(O)cc6CC[C@@H]5c5ccccc5)cc2F)C3)C4)C(=O)N1` (mixture of isomers) [E 154, Rac-2-(2,6-dioxopiperidin-3-yl)-6-(2-(2-(2-fluoro-4-((1R,2S)-6-hydroxy-2-phenyl-1,2,3,4-tetrahydronaphthalen-1-yl)phenyl)-2,8-diazaspiro[4.5]decan-8-yl)acetyl)-6,7-dihydropyrrolo[3,4-f]isoindole-1,3(2H,5H)-dione]: the DC50 is over 100 nM.
With `C[C@@H]1Cc2cc(O)ccc2[C@@H](c2ccc(C3CCC(C(=O)N4CCC(N5Cc6cc7c(cc6C5)C(=O)N(C5CCC(=O)NC5=O)C7=O)CC4)CC3)cc2F)N1CC(F)F` (stereo partly drawn) [E 317, 6-(1-(4-(4-((1S,3R)-2-(2,2-difluoroethyl)-6-hydroxy-3-methyl-1,2,3,4-tetrahydroisoquinolin-1-yl)-3-fluorophenyl)cyclohexane-1-carbonyl)piperidin-4-yl)-2-(2,6-dioxopiperidin-3-yl)-6,7-dihydropyrrolo[3,4-f]isoindole-1,3(2H,5H)-dione], the DC50 lay in the range of 10 to 100 nM.
With `O=C1CCC(N2C(=O)c3cc4c(cc3C2=O)CN(CC(=O)N2CCC3(CC2)CCN(c2ccc([C@@H]5c6ccc(O)cc6CC[C@@H]5c5ccc(F)cc5)cc2)CC3)CC4)C(=O)N1` (mixture of isomers) [E 165, rac-2-(2,6-dioxopiperidin-3-yl)-6-(2-(9-(4-((1R,2S)-2-(4-fluorophenyl)-6-hydroxy-1,2,3,4-tetrahydronaphthalen-1-yl)phenyl)-3,9-diazaspiro[5.5]undecan-3-yl)-2-oxoethyl)-5,6,7,8-tetrahydro-1H-pyrrolo[3,4-g]isoquinoline-1,3(2H)-dione], the DC50 was 10 to 100 nM.
Turning to `C[C@@H]1Cc2c([nH]c3ccccc23)[C@@H](c2c(F)cc(N3CCC(N4CC(CC(=O)N5Cc6cc7c(cc6C5)C(=O)N(C5CCC(=O)NC5=O)C7)C4)CC3)cc2F)N1CC(F)F` (stereo partly drawn) [E 56, 3-(6-(2-(1-(1-(4-((1R,3R)-2-(2,2-difluoroethyl)-3-methyl-2,3,4,9-tetrahydro-1H-pyrido[3,4-b]indol-1-yl)-3,5-difluorophenyl)piperidin-4-yl)azetidin-3-yl)acetyl)-1-oxo-3,5,6,7-tetrahydropyrrolo[3,4-f]isoindol-2(1H)-yl)piperidine-2,6-dione], the DC50 fell in the range of 10 to 100 nM.

The same assay, now with this note: compounds 16 hours, Table A does not say whether T47D or MCF7, read-out: Potency (DC50).
`C[C@@H]1Cc2c([nH]c3ccccc23)[C@@H](c2ccc(C3=CCC(C(=O)N4CCC(N5Cc6cc7c(cc6C5)C(=O)N(C5CCC(=O)NC5=O)C7=O)CC4)CC3)cc2F)N1CC(C)(C)F` (stereo partly drawn) [E 481, 2-(2,6-dioxopiperidin-3-yl)-6-(1-(3′-fluoro-4′-((1R,3R)-2-(2-fluoro-2-methylpropyl)-3-methyl-2,3,4,9-tetrahydro-1H-pyrido[3,4-b]indol-1-yl)-2,3,4,5-tetrahydro-[1,1′-biphenyl]-4-carbonyl)piperidin-4-yl)-6,7-dihydropyrrolo[3,4-f]isoindole-1,3(2H,5H)-dione]: the DC50 fell in the range of 10 to 100 nM.
As for `O=C1CCC(N2C(=O)c3cc4c(cc3C2=O)CN(CC(=O)N2CCC3(CC2)CCN(c2ccc([C@H]5c6ccc7[nH]ncc7c6CC[C@H]5c5ccccc5)cc2)CC3)C4)C(=O)N1` (stereo partly drawn) [E 422, 2-(2,6-dioxopiperidin-3-yl)-6-(2-oxo-2-(9-(4-((6S,7R)-7-phenyl-6,7,8,9-tetrahydro-3H-benzo[e]indazol-6-yl)phenyl)-3,9-diazaspiro[5.5]undecan-3-yl)ethyl)-6,7-dihydropyrrolo[3,4-f]isoindole-1,3(2H,5H)-dione], the DC50 is over 100 nM.
Still for that read-out and setting: as for `O=C1CCC(N2Cc3cc4c(cc3C2=O)CN(C2CCN(CC3CCN(c5ccc([C@@H]6c7ccc(O)cc7CC[C@@H]6c6ccccc6)cc5)CC3)CC2)C4=O)C(=O)N1` (stereo partly drawn) [E 506, 2-(2,6-dioxopiperidin-3-yl)-6-(1-((1-(4-((1R,2S)-6-hydroxy-2-phenyl-1,2,3,4-tetrahydronaphthalen-1-yl)phenyl)piperidin-4-yl)methyl)piperidin-4-yl)-2,3,6,7-tetrahydropyrrolo[3,4-f]isoindole-1,5-dione], the figure is over 100 nM.

Source of the values: patent US20240190880A1 (THE REGENTS OF THE UNIVERSITY OF MICHIGAN, priority 2021, published 2024).
